Drawing on PubChem BioAssay AID248 (DTP/NCI, 2004), this text covers T/C for 14 molecules.

“And” between values parts separate entries of the source, which are not always exact repeats. Identical values can stand only once. Toxic doses and inconclusive results are not listed.

The test has as its system L1210 leukemia ip in BDF1 mice, survival T/C. The test is described as follows: NCI In Vivo Anticancer Drug Screen. Data for tumor model L1210 Leukemia (intraperitoneal) in B6D2F1 (BDF1) mice. To be noted: endpoint: mean survival time, higher = longer survival. The method, boiled down: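 Antitumor effect is assessed in tumor-bearing animals. Survival in the compound arm is compared with a vehicle-dosed control arm and expressed as their quotient.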

Where [1] appears, read: dose: 100.0 mg/kg/injection, schedule: Q01DX009 (ip), vehicle: saline with Tween-80.
[2] abbreviates: dose: 200.0 mg/kg/injection, schedule: Q01DX009 (ip), vehicle: saline with Tween-80.
[3] abbreviates: dose: 400.0 mg/kg/injection, schedule: Q01DX009 (ip), vehicle: saline with Tween-80.
The mark [4] stands for this setting: dose: 100.0 mg/kg/injection, schedule: Q04DX003 (ip), vehicle: saline.
[5] abbreviates: dose: 200.0 mg/kg/injection, schedule: Q04DX003 (ip), vehicle: saline.
The mark [6] stands for this setting: dose: 100.0 mg/kg/injection, schedule: Q04DX002 (ip), vehicle: Klucel (hydroxypropylcellulose) (HPC).
[7] abbreviates: dose: 200.0 mg/kg/injection, schedule: Q04DX002 (ip), vehicle: Klucel (hydroxypropylcellulose) (HPC).
Where [8] appears, read: dose: 400.0 mg/kg/injection, schedule: Q04DX002 (ip), vehicle: Klucel (hydroxypropylcellulose) (HPC).
Setting [9] is: dose: 100.0 mg/kg/injection, schedule: Q01DX001 (ip), vehicle: saline.
Setting [10] is: dose: 200.0 mg/kg/injection, schedule: Q01DX001 (ip), vehicle: saline.
Where [11] appears, read: dose: 400.0 mg/kg/injection, schedule: Q01DX001 (ip), vehicle: saline.

Take `C[NH-].C[NH-].[Br][Pt+2][Br]`: the T/C (dose: 0.62 mg/kg/injection, schedule: Q01DX009 (ip), vehicle: water) is 118 % of control and 123 % of control; the T/C (dose: 1.5 mg/kg/injection, schedule: Q01DX001 (ip), vehicle: other) is 108 % of control; the T/C (dose: 1.5 mg/kg/injection, schedule: Q01DX009 (ip), vehicle: other) is 115 % of control; the T/C (dose: 2.0 mg/kg/injection, schedule: Q01DX009 (ip), vehicle: other) is 161 % of control; the T/C (dose: 3.0 mg/kg/injection, schedule: Q01DX001 (ip), vehicle: other) was 117 % of control; the T/C (dose: 3.0 mg/kg/injection, schedule: Q01DX005 (ip), vehicle: saline with Tween-80) is 105 % of control. Moreover, the T/C is 153 % of control (dose: 3.0 mg/kg/injection, schedule: Q01DX009 (ip), vehicle: other); 95 % of control (dose: 4.5 mg/kg/injection, schedule: Q01DX009 (ip), vehicle: other); 98 % of control (dose: 5.0 mg/kg/injection, schedule: Q01DX009 (ip), vehicle: water); 117 % of control (dose: 6.0 mg/kg/injection, schedule: Q01DX001 (ip), vehicle: other); 98 % of control (dose: 6.0 mg/kg/injection, schedule: Q01DX009 (ip), vehicle: other); 115 % of control (dose: 10.0 mg/kg/injection, schedule: Q01DX009 (ip), vehicle: water). For the same molecule, the T/C was 124 % of control (dose: 25.0 mg/kg/injection, schedule: Q01DX001 (ip), vehicle: other) and 95 % of control (dose: 50.0 mg/kg/injection, schedule: Q01DX001 (ip), vehicle: other).
Consider `COc1ccc([N+](=O)[O-])cc1C(F)(F)F`, for which the T/C runs as follows: under setting [1], 96 % of control; under setting [2], 97 % of control; under setting [3], 93 % of control.
As to `CC(C)(C)OC(=O)N1Cc2cc3ccccc3nc2C1`, the T/C (dose: 50.0 mg/kg/injection, schedule: Q01DX009 (ip), vehicle: saline) is 98 % of control; the T/C (dose: 100.0 mg/kg/injection, schedule: Q01DX009 (ip), vehicle: saline) was 94 % of control; the T/C under setting [4] was 96 % of control; the T/C under setting [5] is 100 % of control.
As to `COC(=O)C1=C(C(=O)OC)C2C=CC1C1(C)C(=O)N(C)C21C` (centres undefined), the T/C (dose: 75.0 mg/kg/injection, schedule: Q04DX002 (ip), vehicle: Klucel (hydroxypropylcellulose) (HPC)) was 90 % of control and the T/C (dose: 300.0 mg/kg/injection, schedule: Q04DX002 (ip), vehicle: Klucel (hydroxypropylcellulose) (HPC)) was 86 % of control.
As for `COC(=O)C1(c2ccccc2)C(c2ccccc2)=C(c2ccccc2)C(c2ccccc2)CC1c1ccccc1` (centres undefined), the T/C is, setting by setting: under setting [6], 103 % of control; under setting [7], 96 % of control; under setting [8], 92 % of control.
`CCC[As](=O)(O)CCCc1ccccc1`: the T/C (dose: 0.78 mg/kg/injection, schedule: Q01DX009 (ip), vehicle: Klucel (hydroxypropylcellulose) (HPC)) is 100 % of control; the T/C (dose: 1.56 mg/kg/injection, schedule: Q01DX009 (ip), vehicle: Klucel (hydroxypropylcellulose) (HPC)) is 87 % of control; the T/C (dose: 3.13 mg/kg/injection, schedule: Q01DX009 (ip), vehicle: Klucel (hydroxypropylcellulose) (HPC)) was 101 % of control.
For `O=C(O)CCCc1nc2ccccc2c(=O)[nH]1`, the T/C is 101 % of control and 103 % of control (dose: 44.0 mg/kg/injection, schedule: Q01DX001 (ip), vehicle: carboxymethylcellulose (CMC)); 108 % of control (dose: 50.0 mg/kg/injection, schedule: Q01DX001 (ip), vehicle: carboxymethylcellulose (CMC)); 98 % of control and 103 % of control (dose: 66.0 mg/kg/injection, schedule: Q01DX001 (ip), vehicle: carboxymethylcellulose (CMC)); 98 % of control and 100 % of control (dose: 100.0 mg/kg/injection, schedule: Q01DX001 (ip), vehicle: carboxymethylcellulose (CMC)); 93 % of control and 100 % of control (dose: 150.0 mg/kg/injection, schedule: Q01DX001 (ip), vehicle: carboxymethylcellulose (CMC)); 106 % of control (dose: 200.0 mg/kg/injection, schedule: Q01DX001 (ip), vehicle: carboxymethylcellulose (CMC)). For the same molecule, the T/C (dose: 400.0 mg/kg/injection, schedule: Q01DX001 (ip), vehicle: carboxymethylcellulose (CMC)) was 101 % of control.
On to `Nc1ncnn1Cc1ccccc1`, for which the T/C is, setting by setting: under setting [9], 96 % of control; under setting [4], 101 % of control; under setting [10], 97 % of control; under setting [5], 106 % of control; under setting [11], 100 % of control; (dose: 400.0 mg/kg/injection, schedule: Q04DX003 (ip), vehicle: saline) 101 % of control.
Regarding `O=c1[nH]cnc2c1ncn2CCCCc1ccccc1`, the T/C runs as follows: under setting [6], 108 % of control; under setting [7], 101 % of control; under setting [8], 105 % of control.
`CCOc1ccc(-n2c(O)c(N=Nc3ccc(Cl)cc3)c(=O)n(-c3ccccc3)c2=S)cc1`: the T/C by setting is: (dose: 100.0 mg/kg/injection, schedule: Q01DX001 (ip), vehicle: Klucel (hydroxypropylcellulose) (HPC)) 104 % of control; (dose: 200.0 mg/kg/injection, schedule: Q01DX001 (ip), vehicle: Klucel (hydroxypropylcellulose) (HPC)) 105 % of control; (dose: 400.0 mg/kg/injection, schedule: Q01DX001 (ip), vehicle: Klucel (hydroxypropylcellulose) (HPC)) 94 % of control.
With `CC(=O)OC(C(=O)N(c1ccccc1)c1ccccc1)c1ccccc1` (centres undefined), the T/C reads like this: under setting [1], 98 % of control; under setting [2], 95 % of control; under setting [3], 93 % of control.
Take `O=[N+]([O-])C1=C(c2ccccc2)C(c2ccccc2)(c2ccccc2)N=N1`: the T/C reads like this: under setting [9], 100 % of control; under setting [10], 90 % of control; under setting [11], 88 % of control.
As to `COc1ccc(OCCOC(C)=O)cc1`, the T/C is 107 % of control under setting [6], 100 % of control under setting [7] and 103 % of control under setting [8].
Consider `CCCCCCCCCCCCCCCC[N+](C)(C)C`, for which the T/C is, setting by setting: (dose: 0.93 mg/kg/injection, schedule: Q04DX003 (ip), vehicle: saline) 97 % of control; (dose: 1.09 mg/kg/injection, schedule: Q01DX009 (ip), vehicle: saline) 100 % of control; (dose: 1.87 mg/kg/injection, schedule: Q01DX009 (ip), vehicle: saline) 92 % of control; (dose: 1.87 mg/kg/injection, schedule: Q04DX003 (ip), vehicle: saline) 106 % of control; (dose: 2.0 mg/kg/injection, schedule: Q01DX015 (ip), vehicle: saline) 94 % of control; (dose: 2.18 mg/kg/injection, schedule: Q01DX009 (ip), vehicle: saline) 100 % of control. Further, the T/C is, setting by setting: (dose: 3.75 mg/kg/injection, schedule: Q01DX009 (ip), vehicle: saline) 92 % of control; (dose: 3.75 mg/kg/injection, schedule: Q04DX003 (ip), vehicle: saline) 95 % of control; (dose: 4.0 mg/kg/injection, schedule: Q01DX015 (ip), vehicle: saline) 95 % of control; (dose: 4.37 mg/kg/injection, schedule: Q01DX009 (ip), vehicle: saline) 91 % of control; (dose: 6.25 mg/kg/injection, schedule: Q04DX003 (ip), vehicle: saline) 101 % of control; (dose: 7.5 mg/kg/injection, schedule: Q01DX009 (ip), vehicle: saline) 92 % of control. In addition, the T/C is 90 % of control (dose: 7.5 mg/kg/injection, schedule: Q04DX003 (ip), vehicle: saline); 113 % of control (dose: 11.0 mg/kg/injection, schedule: Q01DX009 (ip), vehicle: saline); 95 % of control (dose: 12.5 mg/kg/injection, schedule: Q01DX001 (ip), vehicle: saline); 105 % of control (dose: 12.5 mg/kg/injection, schedule: Q04DX003 (ip), vehicle: saline); 98 % of control (dose: 25.0 mg/kg/injection, schedule: Q01DX001 (ip), vehicle: saline); 105 % of control (dose: 25.0 mg/kg/injection, schedule: Q04DX003 (ip), vehicle: carboxymethylcellulose (CMC)). The T/C by setting is: (dose: 25.0 mg/kg/injection, schedule: Q04DX003 (ip), vehicle: saline) 90 % of control; (dose: 35.0 mg/kg/injection, schedule: Q04DX003 (ip), vehicle: saline) 88 % of control; (dose: 50.0 mg/kg/injection, schedule: Q04DX003 (ip), vehicle: carboxymethylcellulose (CMC)) 100 % of control; (dose: 100.0 mg/kg/injection, schedule: Q04DX003 (ip), vehicle: Klucel (hydroxypropylcellulose) (HPC)) 103 % of control.
